Data as given in patent publication US7081467B2, “C2-disubstituted indan-1-ones and their derivatives, processes for their preparation and their use as pharmaceuticals” (Sanofi-aventis Deutschland GmbH, priority 2001, dated 2006).

How the values were obtained:
female NMRI mice = assay: Anorectic action: cumulative milk consumption after 24 h feed removal; type: in vivo; settings: feed removed 24 h, dose 20 mg/kg (ip or po, route not specified)
Method: The anorectic action was tested on female NMRI mice. After removal of feed for 24 hours, the preparation to be tested was administered intraperitoneally (ip) or by gavage (po). The animals were housed singly and, with free access to drinking water, they were offered evaporated milk 30 minutes after administration of the preparation. The consumption of evaporated milk was determined and the general behavior of the animals was monitored every half an hour for 7 hours. The measured milk consumption was compared to that of vehicle-treated control animals.

melting point: 150 °C
Structure (SMILES): CS(=O)(=O)C1(F)Cc2cc(Cl)ccc2C1=O (stereo not drawn) [Example 1, 5-Chloro-2-fluoro-2-methanesulfonylindan-1-one]
Reduction in cumulative milk consumption as % of the control (female NMRI mice; compared with vehicle-treated control animals): 48% | cumulative milk consumption by treated animals (female NMRI mice; evaporated milk offered 30 min after administration, monitored for 7 hours): 5/2.00 ml
